target: T1, T315I mutant form of BCR-ABL in Ba/F3 cells (Homo sapiens, UniProt P00519, T315I); assay: Abl_T315I p-ELISA Cellular Assay (BCR-ABL phospho-ELISA); format: cell-based; conditions: 60-120 minutes incubation
T1 construct: expressed in transfected cells; host or cells: Ba/F3 cells; the other entry of the earlier key: BCR (P11274, Breakpoint cluster region protein)
T1 sequence (P00519 242-493 T315I limits assumed): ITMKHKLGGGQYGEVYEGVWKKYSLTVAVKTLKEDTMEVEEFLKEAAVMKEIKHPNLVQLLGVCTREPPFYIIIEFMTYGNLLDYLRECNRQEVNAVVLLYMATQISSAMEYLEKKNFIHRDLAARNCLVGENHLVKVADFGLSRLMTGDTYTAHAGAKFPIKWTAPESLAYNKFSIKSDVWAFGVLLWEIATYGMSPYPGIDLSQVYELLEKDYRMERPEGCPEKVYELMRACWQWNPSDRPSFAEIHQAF
Method: Cells (Ba/F3 cells transfected with WT BCR-ABL, other kinases, or T315I, Y253F, M351T, E255K, or other mutant forms of BCR-ABL) were grown in the absence of IL-3 at least ½ week before the assay. The day before assay, the cells were fed with fresh media so that at the time of assay the cells were in log phase. Ba/F3 cells that had been grown in the absence of IL-3 for at least ½ week were resuspended in RPMI 1640 so that each well of a 96-well plate would contain approximately 200,000 cells. Cells were distributed in a 96-well plate containing serially diluted concentrations of test compounds. Cells were typically incubated with or without test compounds for 60-120 minutes at 5% CO2, 37° C. The incubation was performed with or without other additives such as 10% FCS or 50% human plasma. After incubation of compounds, lysis buffer was added and incubated for 10-15 minutes; the lysate was cleared by centrifugation.
To make the ELISA plate, commercially available Anti-ABL antibodies (e.g. (Ab-3, Calbiochem OP20) were prepared at a concentration of 0.125 μg/ml in coating buffer (0.1M Na-carbonate, pH 9.5), and plated at 10 ml per plate (12.5 μl 100 μg/ml Ab/10 ml). In a high binding multi-well plate, 100 μl Ab in coating buffer were added to each well, and each plate was covered with a plate seal and incubated overnight at 4° C.
Excess antibody was removed and the ELISA plate was washed 3-4 times with 200 μl of wash buffer (0.05% Tween in PBS, pH 7.4). 150 μl of lysate (see above) were transferred to the ELISA plate. Plates were sealed and incubated 2 hours at room temperature. The detection antibody (e.g. HRP conjugated anti-pTyr or unconjugated α-p-Y 4G10, Upstate) was prepared in assay diluent. The antibody was diluted 1:1000 (stock=2 μg/μl, 200 μg in 100 μl; f.c.=2 μg/ml) in assay diluent and 10 ml of diluted antibody per plate were added. The lysate was removed from the ELISA plates, and wells were washed four times with 200 μl of wash buffer per well. 100 μl of detection antibody was added to each well; the plate was covered, and incubated 1 hr at room temperature (21° C.). Excess detection antibody was removed from the ELISA plates, and the wells were washed four times with 200 μl of wash buffer per well.
If necessary, (i.e. for unconjugated anti-pTyr antibody) secondary antibody (goat anti-rabbit HRP) was diluted 1:3000 in assay diluent (3.33 μl per 10 ml diluent) and added at 10 ml of diluted antibody per plate. Excess secondary antibody was removed from the ELISA plate, and the plate was washed four times with 200 μl per well of wash buffer.
Substrate Reagent A and Substrate Reagent B (Pierce Cat#37070 SuperSignal ELISA Pico Chemiluminescent Substrate) were added immediately before use (10 ml resultant solution per plate). 100 μl substrate were added per well, mixed for 1 minute, and chemiluminescent signal was measured with a luminometer.

| SMILES | IC50 [µM] |
| --- | --- |
| CNC(=O)c1cc(-c2cnc3[nH]cc(-c4ccccc4OC)c3c2)cs1 [AE2] | 0.1 to 1 |
| COc1ccccc1-c1c[nH]c2ncc(-c3cc[nH]c(=O)c3)cc12 [AE9] | 0.1 to 1 |
| COc1ccccc1-c1c[nH]c2ncc(-c3ccc(S(N)(=O)=O)s3)cc12 [AE11] | 0.1 to 1 |
| COc1ccccc1-c1c[nH]c2ncc(-c3cccc(S(C)(=O)=O)c3)cc12 [AE13] | 0.1 to 1 |
| c1cc2cc(-c3c[nH]c4ncc(-c5ccc6[nH]cnc6c5)cc34)ccc2[nH]1 [AE22] | 0.1 to 1 |
| Oc1cccc(-c2cnc3[nH]cc(-c4ccc(O)c(F)c4)c3c2)c1 [AE48] | 0.1 to 1 |
| Oc1cccc(-c2cnc3[nH]cc(-c4ccn[nH]4)c3c2)c1 [AE49] | 0.1 to 1 |
| COc1cc(-c2cnc3[nH]cc(-c4ccccc4OC)c3c2)ccc1O [AE64] | < 0.1 |

Other lines, results leading:

| IC50 [µM] | SMILES |
| --- | --- |
| < 0.1 | CNC(=O)c1cncc(-c2cnc3[nH]cc(-c4ccccc4OC)c3c2)c1 [AE1] |
| < 0.1 | COc1ccccc1-c1c[nH]c2ncc(-c3csc(C(=O)N(C)C)c3)cc12 [AE3] |
| < 0.1 | O=C(c1cncc(-c2cnc3[nH]cc(-c4ccc5cc[nH]c5c4)c3c2)c1)N1CCOCC1 [AE14] |
| < 0.1 | N#Cc1cc(-c2cnc3[nH]cc(-c4ccc5[nH]ccc5c4)c3c2)ccc1O [AE20] |
| < 0.1 | COc1ccccc1-c1c[nH]c2ncc(-c3ccc(O)c(CN4CCCN(C)CC4)c3)cc12 [AE41] |
| < 0.1 | COc1ccccc1-c1c[nH]c2ncc(-c3cccc(C(=N)N4CCCCC4)c3)cc12 [AE42] |
| < 0.1 | Nc1nc(-c2c[nH]c3ncc(-c4ccc5[nH]ccc5c4)cc23)cs1 [AE55] |
| < 0.1 | COc1cc(-c2cnc3[nH]cc(-c4ccc(O)cc4)c3c2)ccc1O [AE58] |

Source: patent publication US7709645B2, “Pyrrolo-pyridine kinase modulators” (SGX Pharmaceuticals, Inc., priority 2004, dated 2010)
